Data taken from ChEMBL document CHEMBL5370601, “Synthesis and Binding Mode Predictions of Novel Siglec-7 Ligands” (J Med Chem, 2023).

How the values were obtained:
[1] = biological target: Sialic acid-binding Ig-like lectin 7 (Homo sapiens) (UniProt Q9Y286); test: Potency index, ratio of test compound IC50 to (2R,4S,5R,6R)-2-(3-(4-([1,1'-biphenyl]-4-yl)-1H-1,2,3-triazol-1-yl)propoxy)-5-acetamido-6-((1R,2R)-1,2-dihydroxy-3-(methylsulfonamido)propyl)-4-hydroxytetrahydro-2H-pyran-2-carboxylate Sodium IC50 for competitive inhibition of IgG1-fused human Siglec-7 Fc domain preincubated for 10 mins followed by addition of red blood cells incubated for 20 mins on ice by sandwich FACS analysis; settings: time 30.0 min
[2] = biological target: Sialic acid-binding Ig-like lectin 7 (Homo sapiens) (UniProt Q9Y286); test: Potency index, ratio of test compound IC50 to (2R,4S,5R,6R)-2-(3-(4-([1,1'-biphenyl]-4-yl)-1H-1,2,3-triazol-1-yl)propoxy)-5-acetamido-4-hydroxy-6-((1R,2R)-1,2,3-trihydroxypropyl)tetrahydro-2H-pyran-2-carboxylate Sodium IC50 for competitive inhibition of IgG1-fused human Siglec-7 Fc domain preincubated for 10 mins followed by addition of red blood cells incubated for 20 mins on ice by sandwich FACS analysis; settings: time 30.0 min
[3] = Solubility in PBS; assay type: physicochemical; settings: buffer
[4] = Solubility in water; assay type: physicochemical; settings: buffer
[5] = Solubility in methanol; assay type: physicochemical

Chain of Sialic acid-binding Ig-like lectin 7 (Homo sapiens) (Q9Y286 whole entry, the tested form may be a part): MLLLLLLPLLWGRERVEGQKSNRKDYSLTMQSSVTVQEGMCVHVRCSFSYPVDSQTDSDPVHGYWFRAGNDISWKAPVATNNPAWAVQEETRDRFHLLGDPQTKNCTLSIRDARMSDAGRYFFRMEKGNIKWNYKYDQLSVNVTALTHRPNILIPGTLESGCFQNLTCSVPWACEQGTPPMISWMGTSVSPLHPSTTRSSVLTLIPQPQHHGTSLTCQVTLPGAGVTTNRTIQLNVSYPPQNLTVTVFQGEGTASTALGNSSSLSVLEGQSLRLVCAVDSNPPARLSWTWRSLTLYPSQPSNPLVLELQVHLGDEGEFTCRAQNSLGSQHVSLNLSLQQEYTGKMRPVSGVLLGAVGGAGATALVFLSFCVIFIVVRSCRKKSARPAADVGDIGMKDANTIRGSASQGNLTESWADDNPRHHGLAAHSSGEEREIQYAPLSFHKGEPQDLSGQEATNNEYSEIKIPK

SMILES	Ratio IC50 [1]	Ratio IC50 [2]	also measured
CS(=O)(=O)NC[C@@H](O)[C@@H](O)[C@@H]1O[C@@](OCCCn2cc(-c3ccc(-c4ccccc4)cc3)nn2)(C(=O)O)C[C@H](O)[C@H]1NC(=O)CF	1.5	–	–
O=C(COCc1ccccc1)N[C@H]1[C@H]([C@H](O)[C@H](O)CO)O[C@@](OCCCn2cc(-c3ccc(-c4ccccc4)cc3)nn2)(C(=O)[O-])C[C@@H]1O.[Na+]	–	–	solubility [3]: Insoluble; solubility [4]: Insoluble
CC(=O)N[C@H]1[C@H]([C@H](O)[C@H](O)CCNC(=O)Cc2ccccc2)O[C@@](OCCCn2cc(-c3ccc(-c4ccccc4)cc3)nn2)(C(=O)O)C[C@@H]1O	–	< 0.5	–
O=C(CF)N[C@H]1[C@H]([C@H](O)[C@H](O)CO)O[C@@](OCCCn2cc(-c3ccc(-c4ccccc4)cc3)nn2)(C(=O)O)C[C@@H]1O	–	1.6	–
N[C@H]1[C@H]([C@H](O)[C@H](O)CO)O[C@@](OCCCn2cc(-c3ccc(-c4ccccc4)cc3)nn2)(C(=O)O)C[C@@H]1O	–	–	solubility [4]: Insoluble; solubility [5]: Insoluble

Now from value to compound, other results behind:

Ratio IC50 [1]	Ratio IC50 [2]	SMILES	also measured
–	0.75	CC(=O)N[C@H]1[C@H]([C@H](O)[C@H](O)CC(=O)O)O[C@@](OCCCn2cc(-c3ccc(-c4ccccc4)cc3)nn2)(C(=O)O)C[C@@H]1O	–
0.3	–	CS(=O)(=O)NC[C@@H](O)[C@@H](O)[C@@H]1O[C@@](OCCCn2cc(-c3ccc(-c4ccccc4)cc3)nn2)(C(=O)O)C[C@H](O)[C@H]1NC(=O)COCc1ccccc1	–
–	< 0.5	CCC(=O)NCC[C@@H](O)[C@@H](O)[C@@H]1O[C@@](OCCCn2cc(-c3ccc(-c4ccccc4)cc3)nn2)(C(=O)O)C[C@H](O)[C@H]1NC(C)=O	–
1.2	–	CS(=O)(=O)NC[C@@H](O)[C@@H](O)[C@@H]1O[C@@](OCCCn2cc(-c3ccc(-c4ccccc4)cc3)nn2)(C(=O)O)C[C@H](O)[C@H]1NC(=O)CO	–
–	1.5	O=C(CO)N[C@H]1[C@H]([C@H](O)[C@H](O)CO)O[C@@](OCCCn2cc(-c3ccc(-c4ccccc4)cc3)nn2)(C(=O)O)C[C@@H]1O	–
